Results on 2 molecules are retold here after US9006221B2, “Method of modulating ship activity” (H. Lee Moffitt Cancer Center and Reserach Institute, Inc., priority 2008, dated 2015).

For this assay, the target named is T1, SHIP1 (Mus musculus, UniProt Q9ES52).
T1 construct: The asterisk in lanes 1 and 3 indicates the ˜145 kD full-length SHIP protein; His tag (C); made in house; host or cells: E. coli Rosetta-Gami 2 (DE3) pLys
T1 sequence (Q9ES52 1-1191): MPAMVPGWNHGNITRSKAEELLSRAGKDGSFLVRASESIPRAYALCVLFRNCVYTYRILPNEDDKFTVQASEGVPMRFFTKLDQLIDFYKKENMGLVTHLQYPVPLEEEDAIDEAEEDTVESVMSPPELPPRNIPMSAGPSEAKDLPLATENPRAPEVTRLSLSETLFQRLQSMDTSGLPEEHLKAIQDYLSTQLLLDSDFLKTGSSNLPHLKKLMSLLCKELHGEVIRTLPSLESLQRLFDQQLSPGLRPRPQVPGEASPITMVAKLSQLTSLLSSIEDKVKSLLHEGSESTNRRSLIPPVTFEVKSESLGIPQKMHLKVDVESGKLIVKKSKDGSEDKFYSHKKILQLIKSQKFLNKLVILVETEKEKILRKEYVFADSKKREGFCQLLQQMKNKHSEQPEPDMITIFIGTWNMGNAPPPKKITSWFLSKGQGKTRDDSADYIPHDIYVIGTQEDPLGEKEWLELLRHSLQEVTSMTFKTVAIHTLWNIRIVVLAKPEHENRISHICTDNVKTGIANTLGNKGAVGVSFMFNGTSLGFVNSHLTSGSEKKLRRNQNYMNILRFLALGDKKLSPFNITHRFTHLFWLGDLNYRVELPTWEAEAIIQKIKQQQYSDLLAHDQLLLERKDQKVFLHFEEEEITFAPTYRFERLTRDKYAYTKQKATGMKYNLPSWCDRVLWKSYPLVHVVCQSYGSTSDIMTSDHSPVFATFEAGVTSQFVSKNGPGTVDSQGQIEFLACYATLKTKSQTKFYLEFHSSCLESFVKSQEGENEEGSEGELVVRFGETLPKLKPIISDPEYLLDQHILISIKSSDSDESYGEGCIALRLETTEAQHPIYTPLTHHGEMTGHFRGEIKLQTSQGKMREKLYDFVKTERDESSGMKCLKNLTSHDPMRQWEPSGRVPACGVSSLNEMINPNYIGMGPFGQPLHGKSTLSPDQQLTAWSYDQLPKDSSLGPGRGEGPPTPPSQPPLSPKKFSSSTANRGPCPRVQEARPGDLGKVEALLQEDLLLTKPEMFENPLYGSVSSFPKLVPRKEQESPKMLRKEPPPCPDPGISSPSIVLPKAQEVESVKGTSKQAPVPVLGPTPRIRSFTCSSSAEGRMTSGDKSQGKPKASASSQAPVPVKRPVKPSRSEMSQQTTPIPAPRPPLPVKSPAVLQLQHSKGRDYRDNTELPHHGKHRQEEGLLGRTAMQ
Kind of assay: Fluorescence polarization (FP) assay of SHIP1 enzymatic activity. It is filed as biochemical. As to conditions: for SHIP inhibitory activity in FP assay: confirmatory FP assay of screening hits. The text has this:
SHIP is detectable in this expression system as a ˜145 kD protein (FIG. 1a, lane 1). Because of an in-frame Histidine (His) tag on the COOH terminus of SHIP, it can then be purified from E. coli lysates by FPLC over a Ni-containing resin. (FIG. 1a, lane 3). Purified SHIP was routinely obtained in sufficient quantities, using this E. coli expression system and FPLC purification, to conduct high-throughput screening (HTS) of chemical libraries for compounds that inhibit SHIP activity. However, prior to screening, a fluorescence polarization (FP) assay that detects SHIP activity in either a 96- or […] format, seen in FIG. 1b, screen was established. SHIP generates PI(3,4)P2 from its PI(3,4,5)P3 substrate. In the FP assay enzymatic generation of PI(3,4)P2 by SHIP reduces polarized fluorescence (mP) because the fluorescent PI(3,4)P2 “probe” is displaced from a detector protein that binds specifically to PI(3,4)P2. The FP assay is highly specific for SHIP activity in these lysates. No significant 5′-inositol phosphatase activity was detected in E. coli lysates harboring an ‘empty’ pet24b expression vector insert when FPLC fractions where SHIP typically elutes with the imidazole step gradient are analyzed in the FP assay (FIG. 1c).
After preparing purified SHIP and establishing the FP assay, two different chemical libraries, comprising a total of ˜2100 different chemical compounds, were screened. Seventeen compounds capable of inhibiting SHIP activity at μM concentrations were identified in this screen. The compounds were verified for SHIP activity inhibition by repeating the FP assay with the compounds obtained from their respective wells in the replicates of the masterplates for these libraries FIGS. 2-6).
A fluorescence polarization (FP) assay to detect and quantify SHIP2 activity has been previously described [Drees B E, et al., Comb Chem High Throughput Screen (2003) 6(4):321-330], but no assay has been described for the detection of SHIP1. A fluorescence polarization (FP) assay was developed to detect the activity of recombinant SHIP1 (see FIGS. 15a and b) and the FP assay was utilized as a rapid screen to detect compounds in chemical libraries that have inhibitory activity against SHIP1. This screen identified 3α-aminocholestane as a potent inhibitor of SHIP1 enzymatic activity (FIG. 15c). […] This high degree of selectivity could be important, since loss of PTEN function promotes malignancy in parenchymal and hematopoietic tissues. [Yuan T L & Cantley L C Oncogene (2008) 27(41):5497-5510; Zhang J, et al., Nature (2006) 441(7092):518-522; Yilmaz O H, et al., Nature (2006) 441(7092):475-482]
Assay of SHIP1 enzymatic activity: A fluorescent polarization (FP) assay that detects the 5′-inositol phosphatase activity of SHIP1 was developed based on a previously established protocol [Drees B E, et al., Comb Chem High Throughput Screen (2003) 6(4):321-330] and was obtained from Echelon Biosciences (Salt Lake City, USA). Modifications of the protocol included the application of SHIP1 in the assay and an increase in the concentration of MgCl2 to […] to maximize the activity of SHIP1 in this assay. Each enzymatic reaction was performed in a 96 well working plate and added in the following order and concentration: Recombinant SHIP1 (0.1 μg) in PBS+20 mM MgCl2, 100 μM of each individual compound from the NCI Diversity Set and then PI(3,4,5)P3 substrate diluted 1:10 in H2O. The enzymatic reaction was incubated for 30 min at room temperature. The detector, reaction mixture and probe were then combined according to the SHIP2 protocol. Malachite Green Phosphatase Assay Kit was obtained from Echelon Biosciences (Salt Lake City, USA). Assays for SHIP2 were performed according to the manufacturer's protocol. The concentration of SHIP1 and SHIP2 per reaction mixture was […]. PTEN was used at the concentration recommended by the manufacturer.

For the molecule `CC(C)CCC[C@@H](C)[C@H]1CC[C@H]2[C@@H]3CC[C@H]4C[C@H](N)CC[C@]4(C)[C@H]3CC[C@]12C` [NSC23922, (3R,5S,8R,9S,10S,13R,14S,17R)-10,13-dimethyl-17-[(2R)-6-methylheptan-2-yl]-2,3,4,5,6,7,8,9,11,12,14,15,16,17-tetradecahydro-1H-cyclopenta[a]phenanthren-3-amine], the “SHIP inhibitory activity in FP assay” value is “inhibit both SHIP1 and SHIP2 enzymatic activity”. In addition, the “concentration with detectable inhibitory activity against SHIP1” value (0.1 μg of recombinant SHIP1, FP assay) is 2 µM. Under “at 100 μM in the FP assay”, the “inhibition of SHIP1 activity” value is “inhibits SHIP1 activity”. In addition, the “SHIP inhibitory activity in FP assay” value (listed as NSC 23922) was “SHIP inhibitory activity”.

Regarding `OC(c1cc(-c2ccccc2)nc2c1ccc1ccccc12)C1CCCCN1` (stereo not drawn) [NSC13480, (2-phenylbenzo[h]quinolin-4-yl)-piperidin-2-ylmethanol], the “SHIP inhibitory activity in FP assay” value was “inhibit both SHIP1 and SHIP2 enzymatic activity”. The “SHIP inhibitory activity in FP assay” value (listed as NSC 13480) is listed as “SHIP inhibitory activity”.
